Measured values as given in patent US12103915B2, “TEAD inhibitors and methods of uses thereof” (Insilico Medicine IP Limited, priority 2022, dated 2024).

Key:
[1] = system: NCI-H226 cells; test: Cell growth assay (CellTiter-Glo); format: cell-based, human; settings: Homo sapiens, NCI-H226, 168 h, 7 days treatment, CellTiter-Glo luminescence, read-out: H226 CTG IC50
Protocol: Example A: Cell Growth Assay
CellTiter-Glo reagent (CTG reagent, Promega, G7573).
[…] Also seeding an extra plate as Day 0 control measurement. The microplates were incubated at 37° C., 5% CO2 overnight.
Compounds were 3-fold serial diluted in DMSO and final top-concentration was […], 10 points. 0.3% DMSO as vehicle control. In addition, […] of CTG reagent was added into the extra plate and incubated at room temperature for 30 minutes and detected luminescence signals as Day 0 control by using EnVision (PerkinElmer, 2104 Mutilabel Reader).
Incubated other compounds treated plates at 37° C. for another 7 days and […] of CTG reagent was added into the plates and incubated at room temperature for 30 minutes and detected luminescence signals.
Day 0 luminescence signals were used as negative control or baseline. • Signalday0=average luminescence signals of Day 0 control cells. • Signalblank control=average luminescence signals of blank control. • SignalDMSO vehicle control=average luminescence signals of Day 7 DMSO vehicle control cells. • Signalcpds treatment=luminescence signals of Day 7 compounds treatment cells. Inhibition %=1−(Signalcpds treatment−Signalblank control)/(SignalDMSO vehicle control−Signalblank control)*100.
(Inhibitory concentration 50% (IC50) and maximum inhibition % were calculated using dose response curves.

[2] = biological target: TEAD1 (Homo sapiens, UniProt P28347); test: Thermal shift assay TEAD1; format: binding
Sequence of TEAD1 (P28347 whole entry, species assumed): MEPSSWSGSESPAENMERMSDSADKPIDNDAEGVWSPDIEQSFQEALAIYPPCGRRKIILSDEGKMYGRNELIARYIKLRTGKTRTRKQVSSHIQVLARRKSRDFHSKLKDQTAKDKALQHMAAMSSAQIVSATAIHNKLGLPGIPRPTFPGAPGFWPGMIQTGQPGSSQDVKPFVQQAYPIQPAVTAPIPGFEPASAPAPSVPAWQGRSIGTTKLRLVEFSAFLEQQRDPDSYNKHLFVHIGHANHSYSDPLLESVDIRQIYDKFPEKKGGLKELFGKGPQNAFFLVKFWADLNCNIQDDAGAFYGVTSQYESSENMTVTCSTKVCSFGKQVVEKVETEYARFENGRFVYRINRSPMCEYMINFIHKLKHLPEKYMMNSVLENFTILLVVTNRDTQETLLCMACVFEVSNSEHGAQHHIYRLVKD
In short: (§1)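 Compounds tested at 10 μM and 1 μM, 0.1% DMSO final, with TEAD1 at 0.2 mg/ml or TEAD2 at 0.08 mg/ml final. Melting monitored with Protein Thermal Shift dye on a qPCR instrument.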

[3] = biological target: TEAD2 (Homo sapiens, UniProt Q15562); test: Thermal shift assay TEAD2; format: binding
Sequence of TEAD2 (Q15562 whole entry, species assumed): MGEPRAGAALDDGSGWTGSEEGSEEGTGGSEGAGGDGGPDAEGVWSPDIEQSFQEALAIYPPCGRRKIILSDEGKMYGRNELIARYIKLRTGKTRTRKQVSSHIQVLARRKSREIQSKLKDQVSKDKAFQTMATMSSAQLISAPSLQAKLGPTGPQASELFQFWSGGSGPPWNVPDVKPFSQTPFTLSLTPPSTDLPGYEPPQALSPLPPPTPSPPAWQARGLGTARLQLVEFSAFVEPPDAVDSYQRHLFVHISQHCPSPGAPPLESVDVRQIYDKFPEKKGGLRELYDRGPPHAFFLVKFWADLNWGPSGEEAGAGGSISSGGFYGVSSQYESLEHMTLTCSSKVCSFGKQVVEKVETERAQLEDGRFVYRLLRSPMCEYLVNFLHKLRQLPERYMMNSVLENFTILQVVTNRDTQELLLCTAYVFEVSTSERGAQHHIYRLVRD
In short: as §1

[4] = biological target: TEAD3 (Homo sapiens, UniProt Q99594); test: Thermal shift assay TEAD3; format: binding
Sequence of TEAD3 (Q99594 whole entry, species assumed): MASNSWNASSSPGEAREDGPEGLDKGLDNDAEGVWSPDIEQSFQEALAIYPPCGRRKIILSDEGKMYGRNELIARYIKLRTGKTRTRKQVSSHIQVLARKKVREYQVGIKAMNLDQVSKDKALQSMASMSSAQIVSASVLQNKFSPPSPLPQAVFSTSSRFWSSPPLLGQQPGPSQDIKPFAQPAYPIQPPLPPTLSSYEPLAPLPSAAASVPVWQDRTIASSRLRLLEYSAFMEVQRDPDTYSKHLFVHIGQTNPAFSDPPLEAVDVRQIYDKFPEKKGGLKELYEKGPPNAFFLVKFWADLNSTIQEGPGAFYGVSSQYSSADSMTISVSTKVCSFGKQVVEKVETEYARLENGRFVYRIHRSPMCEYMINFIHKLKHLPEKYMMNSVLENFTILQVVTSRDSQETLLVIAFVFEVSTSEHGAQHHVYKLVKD
In short: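 TEAD3 protein at 0.1 mg/ml final melted with Protein Thermal Shift dye on a qPCR instrument. Compounds tested at 10 μM and 1 μM in PBS, final DMSO 0.1%.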

[5] = biological target: TEAD4 (Homo sapiens, UniProt Q15561); test: Thermal shift assay TEAD4; format: binding
Sequence of TEAD4 (Q15561 whole entry, species assumed): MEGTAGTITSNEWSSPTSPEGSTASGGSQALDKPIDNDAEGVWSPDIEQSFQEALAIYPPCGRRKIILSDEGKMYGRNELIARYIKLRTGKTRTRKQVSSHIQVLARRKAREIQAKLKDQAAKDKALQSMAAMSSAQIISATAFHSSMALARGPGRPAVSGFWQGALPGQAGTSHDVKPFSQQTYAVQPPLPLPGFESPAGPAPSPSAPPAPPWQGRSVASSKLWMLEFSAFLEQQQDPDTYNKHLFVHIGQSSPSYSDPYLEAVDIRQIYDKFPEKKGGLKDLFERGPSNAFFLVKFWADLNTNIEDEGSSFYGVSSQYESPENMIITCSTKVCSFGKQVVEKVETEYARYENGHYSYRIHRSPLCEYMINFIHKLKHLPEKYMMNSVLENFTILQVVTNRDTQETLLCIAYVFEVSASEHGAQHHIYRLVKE
In short: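 Protein thermal shift with TEAD4 at 0.1 mg/ml final, Protein Thermal Shift dye, compounds at 10 μM or 1 μM in PBS with 0.1% DMSO final. Melt reactions assembled on ice and run on a qPCR instrument.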

| Structure (SMILES) | IC50 [1] | TEAD1 ΔTm [2] | TEAD2 ΔTm [3] | TEAD3 ΔTm [4] | TEAD4 ΔTm [5] |
| --- | --- | --- | --- | --- | --- |
| Cn1cc2cc(Oc3ccc(C(F)(F)F)cc3)cc([C@@H]3C[C@H]3C(=O)N[C@@H](CO)c3ccccn3)c2n1 (single isomer, unassigned) [Example 59b] | 100 to 500 nM | 9.4 °C | 11.3 °C | 13.1 °C | 15.6 °C |
| Cn1cc2cc(Oc3ccc(C(F)(F)F)cc3)cc([C@@H]3C[C@H]3C(=O)N3CC(C)(O)C3)c2n1 (single isomer, unassigned) [Example 60] | < 100 nM | 9.5 °C | 12.7 °C | 11.2 °C | 12.3 °C |
| Cn1cc2cc(Oc3ccc(C(F)(F)F)cc3)cc([C@@H]3C[C@H]3C(=O)N3CCO[C@H](CO)C3)c2n1 (single isomer, unassigned) [Example 61] | < 100 nM | 9.3 °C | 12.2 °C | 0.8 °C | 10.4 °C |
| Cn1cc2cc(Oc3ccc(C(F)(F)F)cc3)cc([C@@H]3C[C@H]3C(=O)N3CCO[C@@H](CO)C3)c2n1 (single isomer, unassigned) [Example 62] | < 100 nM | 7.4 °C | 10.6 °C | 1.2 °C | 7.7 °C |
| Cn1cc2cc(Oc3ccc(C(F)(F)F)cc3)cc([C@@H]3C[C@H]3C(=O)NCC#N)c2n1 (single isomer, unassigned) [Example 66] | < 100 nM | 11.1 °C | 14.7 °C | 10.6 °C | 11.7 °C |
| Cn1cc2cc(Oc3ccc(C(F)(F)F)cc3)cc([C@@H]3C[C@H]3C(=O)NC3(C#N)CC3)c2n1 (single isomer, unassigned) [Example 67] | < 100 nM | 8.8 °C | 9.9 °C | 1.7 °C | 7.9 °C |
| C[C@@H](C#N)NC(=O)[C@@H]1C[C@H]1c1cc(Oc2ccc(C(F)(F)F)cc2)cc2cn(C)nc12 (single isomer, unassigned) [Example 69] | < 100 nM | 10.9 °C | 13.9 °C | 11.6 °C | 12.9 °C |
| Cn1cc2cc(Oc3ccc(C(F)(F)F)cc3)cc([C@@H]3C[C@H]3C(=O)N3CC(C#N)C3)c2n1 (single isomer, unassigned) [Example 70] | < 100 nM | 8.4 °C | 11.7 °C | 7.0 °C | 8.6 °C |
| Cn1cc2cc(Oc3ccc(C(F)(F)F)cc3)cc([C@@H]3C[C@H]3C(=O)NC#N)c2n1 (single isomer, unassigned) [Example 71] | 1000 to 30000 nM | 11.2 °C | 13.4 °C | 12.2 °C | 12.2 °C |
| Cn1cc2cc(Oc3ccc(C(F)(F)F)cc3)cc(C3C[C@H]3C(=O)N3CCC[C@@H]3C#N)c2n1 (single isomer, unassigned) [Example 72] | < 100 nM | 3.5 °C | 8.6 °C | 1.7 °C | 4.7 °C |
| Cn1cc2cc(Oc3ccc(C(F)(F)F)cc3)cc(C3C[C@H]3C(=O)N3CCC[C@H]3C#N)c2n1 (single isomer, unassigned) [Example 73] | < 100 nM | 9.5 °C | 15.1 °C | 13.9 °C | 12.1 °C |
| Cn1cc2cc(Oc3ccc(C(F)(F)F)cc3)cc(C3C[C@H]3C(=O)N3CCC(O)CC3)c2n1 (single isomer, unassigned) [Example 74] | < 100 nM | 10.7 °C | 12.9 °C | 11.4 °C | 10.2 °C |
| Cn1cc2cc(Oc3ccc(C(F)(F)F)cc3)cc([C@@H]3C[C@H]3C(=O)N3CC[C@@H](O)[C@H](O)C3)c2n1 (single isomer, unassigned) [Example 75b] | < 100 nM | 9.3 °C | 11.9 °C | 10.1 °C | 11.6 °C |
| Cc1cn2cc(Oc3ccc(C(F)(F)F)cc3)cc([C@H]3C[C@@H]3C(=O)N3CC(O)C3)c2n1 (single isomer, unassigned) [Example 85b] | < 100 nM | 7.4 °C | 7.1 °C | 1.8 °C | 4.4 °C |
| Cn1cc2cc(N3CCC4(CCCC4)CC3)cc(C3C[C@H]3C(=O)N3C[C@H](O)[C@@H](O)C3)c2n1 (single isomer, unassigned) [Example 86] | 1000 to 30000 nM | 2.6 °C | 2.7 °C | 0.2 °C | 2.6 °C |
| Cn1cc2cc(Oc3ccc(C(F)(F)F)cn3)cc([C@H]3C[C@@H]3C(=O)N3CC(O)C3)c2n1 (single isomer, unassigned) [Example 88b] | < 100 nM | 7.6 °C | 10.9 °C | 2.6 °C | 9.7 °C |
| Cn1cc2cc(Oc3ccc(C(F)F)cc3)cc([C@H]3C[C@@H]3C(=O)N3CC(O)C3)c2n1 (single isomer, unassigned) [Example 89b] | < 100 nM | 8.6 °C | 12.4 °C | 8.8 °C | 11.4 °C |
| Cn1cc2cc(Oc3ccc(F)c(F)c3)cc([C@H]3C[C@@H]3C(=O)N3CC(O)C3)c2n1 (single isomer, unassigned) [Example 90b] | < 100 nM | 7.7 °C | 10.5 °C | 2.9 °C | 10.3 °C |
| Cn1cc2cc(Oc3ccc(C(F)(F)F)cc3)cc(C3C[C@H]3C(=O)NC3CC4(CC(O)C4)C3)c2n1 (single isomer, unassigned) [Example 95] | < 100 nM | 9.4 °C | 10.6 °C | 6.4 °C | 9.4 °C |
| Cn1cc2cc(Oc3ccc(C(F)(F)F)cc3)cc(C3C[C@H]3C(=O)N3C4COCC3C4)c2n1 (single isomer, unassigned) [Example 96] | < 100 nM | 10.5 °C | 13.1 °C | 12.3 °C | 12.6 °C |
| Cn1cc2cc(Oc3ccc(C(F)(F)F)cc3)cc(C3C[C@H]3C(=O)N3CC4(CC(O)C4)C3)c2n1 (single isomer, unassigned) [Example 97] | < 100 nM | 9.9 °C | 9.0 °C | 7.6 °C | 10.2 °C |
| Cn1cc2cc(Oc3ccc(C(F)(F)F)cc3)cc(C3C[C@H]3C(=O)N3CCC4(COC4)C3)c2n1 (single isomer, unassigned) [Example 98] | 100 to 500 nM | 7.3 °C | 9.2 °C | 0 °C | 8.4 °C |
| Cn1cc2cc(Oc3ccc(C(F)(F)F)cc3)cc(C3C[C@H]3C(=O)NC34CC(O)(C3)C4)c2n1 (single isomer, unassigned) [Example 102] | < 100 nM | 7.3 °C | 9.1 °C | 2.1 °C | 8.7 °C |
| Cn1cc2cc(Oc3ccc(C(F)(F)F)cc3)cc([C@@H]3C[C@H]3C(=O)N3CC4CC3CC4O)c2n1 (single isomer, unassigned) [Example 103a] | < 100 nM | 6.4 °C | 9.9 °C | 3.0 °C | 9.0 °C |
| Cn1cc2cc(Oc3ccc(C(F)(F)F)cc3)cc([C@H]3C[C@@H]3C(=O)N3CC4CC3CC4O)c2n1 (single isomer, unassigned) [Example 103b] | < 100 nM | 9.2 °C | 12.0 °C | 10.4 °C | 11.8 °C |
| Cn1cc2cc(Oc3ccc(C(F)(F)F)cc3)cc(C3C[C@H]3C(=O)N3C[C@H]4C[C@@H]3C[C@@H]4O)c2n1 (single isomer, unassigned) [Example 103c] | < 100 nM | 9.2 °C | 11.1 °C | 9.4 °C | 10.7 °C |
